Patent US20160139152A1, “Biosensor Using Cell That Expresses Chemosensory Receptor That Can Detect Sugar, And Alzheimer's Disease Diagnostic Apparatus Comprising Same” (KYUNGPOOK NATIONAL UNIVERSITY INDUSTRY-ACADEMIC COOPERATION …, priority 2013, published 2016)

What was measured:
Gr5a = molecular target: T1, Gr5a (Drosophila melanogaster, UniProt Q9W497); experiment: Voltage change of ISFET biosensor (sensing unit) with fixed drosophila cell line expressing Gr5a; assay type: cell-based; conditions: FIG. 9
T1 construct: After cloning Gr5a cDNA into a pAC vector; expressed in transfected cells
T1 sequence (Q9W497 1-444): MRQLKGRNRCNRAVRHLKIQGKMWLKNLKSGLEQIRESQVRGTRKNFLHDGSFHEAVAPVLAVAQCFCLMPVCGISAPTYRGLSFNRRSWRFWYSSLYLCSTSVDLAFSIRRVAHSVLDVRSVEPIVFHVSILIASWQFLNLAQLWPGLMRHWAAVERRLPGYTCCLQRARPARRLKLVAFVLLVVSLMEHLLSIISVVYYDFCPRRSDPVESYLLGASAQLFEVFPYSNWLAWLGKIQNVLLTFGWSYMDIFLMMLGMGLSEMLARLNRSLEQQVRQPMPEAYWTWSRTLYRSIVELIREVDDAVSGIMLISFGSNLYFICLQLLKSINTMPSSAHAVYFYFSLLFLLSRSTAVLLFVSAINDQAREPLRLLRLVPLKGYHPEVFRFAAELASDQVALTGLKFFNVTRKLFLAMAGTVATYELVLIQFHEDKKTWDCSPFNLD
Procedure: A cell line expressing Gr5a, which is one of drosophila gustatory receptors, was established with Drosophila Expression System (Invitrogen) using Drosophila Schneider 2 (S2) cells that cannot detect sugar (http://tools.invitrogen.com/content/sfs/manuals/des_man.pdf). After cloning Gr5a cDNA into a pAC vector, the S2 cell line was co-transfected with 2 μg of the cloned plasmid and 200 ng of pCoHygro which is a selection vector resistant to hygromycin, using polyethylenimine (PEI) in a Schneider medium (Invitrogen) containing no serum. A stable cell line expressing Gr5a was established by culturing in a medium containing hygromycin every 4 days, at least 6 times. A high concentration of a polycrystalline silicon thin film was deposited on a p-type silicon substrate through a low pressure chemical vapor deposition (LPCVD) vacuum equipment, and a source electrode and a drain electrode were formed spaced away from each other using lithographic and dry etching processes. An oxide layer was formed of a silicon dioxide (SiO2) layer, a hafnium oxide (HfO2) layer located on the silicon dioxide layer, and an aluminum oxide (Al2O3) layer located on the hafnium oxide layer, on the silicon layer. Rapid thermal treatment (at 850° C. for 30 seconds) was conducted under N2/O2 gas atmosphere, in order to activate the source electrode, the drain electrode, and the oxide layer, successively. […]

S2 cells = experiment: Voltage change of ISFET biosensor (reference unit) with fixed S2 cells or general culture media; assay type: cell-based, Drosophila; conditions: FIG. 9
Text: A cell line expressing Gr5a, which is one of drosophila gustatory receptors, was established with Drosophila Expression System (Invitrogen) using Drosophila Schneider 2 (S2) cells that cannot detect sugar (http://tools.invitrogen.com/content/sfs/manuals/des_man.pdf). A high concentration of a polycrystalline silicon thin film was deposited on a p-type silicon substrate through a low pressure chemical vapor deposition (LPCVD) vacuum equipment, and a source electrode and a drain electrode were formed spaced away from each other using lithographic and dry etching processes. An oxide layer was formed of a silicon dioxide (SiO2) layer, a hafnium oxide (HfO2) layer located on the silicon dioxide layer, and an aluminum oxide (Al2O3) layer located on the hafnium oxide layer, on the silicon layer. Rapid thermal treatment (at 850° C. for 30 seconds) was conducted under N2/O2 gas atmosphere, in order to activate the source electrode, the drain electrode, and the oxide layer, successively. After the rapid thermal treatment, a metal electrode was deposited by e-beam deposition. Thereafter, a wall structure was constructed with polydimethylsiloxane (PDMS), and an electrolyte was put into the wall structure, to prepare an ISFET based biosensor. A pair ISFET structure was developed capable of sensing by distinguishing the experimental group from the control group, as shown in FIG. 8. […]

change in voltage of the pair ISFET depending on the concentration of trehalose (Gr5a): voltage remarkably increases
SMILES: OC[C@H]1O[C@H](O[C@H]2O[C@H](CO)[C@@H](O)[C@H](O)[C@H]2O)[C@H](O)[C@@H](O)[C@@H]1O [trehalose]
change in voltage of the pair ISFET depending on the concentration of trehalose (S2 cells): voltage changes little
